Patent US20070160725A1, “Use of extracts and compounds of allium-genus plants as preservatives in the food and agri-food industries” (MOUSALA, S., L., priority 2004, published 2007)

Experiments:
[1] = test system: Total mesophilic aerobes; test: microbiological quality of treated hamburgers and fresh sausage: total mesophilic aerobe count
Method: (§1) The tests were conducted on meat products such as hamburgers and fresh sausage at different doses, with and without the usual preservatives (sulfites).
(§2) Each sample is prepared in quintuplicate and microbiological quality control over time is conducted, a triplicate of each sample being performed.
The method used to determine the number of germs per gram was the dish count number, starting from serial decimal dilutions of the sample and using the surface seeding technique.
The culture medium used was nutrient agar (Merck PCA) prepared on Petri dishes on which, from the serial decimal dilutions of the sample (from −1 . . . to −6 in Merck triptone soy broth or TSB), 0.1 mL of each one of the dilutions was transferred.
Dish incubation temperature was 31±1° C.
The final result is expressed as the total microorganism count per gram of sample (said count is performed in the dilutions in which between 30-300 colonies/dish are detected).
(§3) Two different raw meat products (sausages and hamburgers) treated with different allicin doses are prepared. • The used testing doses were: 25, 50 and 100 ppm.
(§4) Five samples of each product (hamburger and sausage) are prepared, each one of them being analyzed in triplicate.
(§5) The microbiological parameters analyzed were as follows: • Total mesophilic aerobes • Coliforms • Escherichia coli • Salmonella (presence/absence in 25 g) • Said parameters were analyzed at different times: • 0 days • 4 days • 7 days • The sample references resulted as follows: […]

[2] = test system: Candida krusei, isolated from cheese; test: agar diffusion, inhibition halo; format: cell-based
Method: (§6) In order to evaluate the antimicrobial activity the agar diffusion technique with cellulose discs of 6 mm in diameter impregnated with the different active ingredient testing doses was used.
(§7) Antifungal capacity was assessed against suspensions of […], harvested from pure cultures of the selected molds and against suspensions of 10^7 cells/ml for the case of yeasts. The culture medium used was the 2% Sabouraud-glucose medium (Merck).
(§8) After incubating the culture dishes inoculated with the different organisms at the corresponding temperatures, the microbial inhibition halos that appeared were measured, and said measurement includes the 6 mm diameter of the cellulose discs.

[3] = test system: Candida parapsilosis, isolated from cheese; test: agar diffusion, inhibition halo; format: cell-based
Method: as §6, §7, §8

[4] = test system: Candida magnoliae, isolated from cheese; test: agar diffusion, inhibition halo; format: cell-based
Method: as §6, §7, §8

[5] = test system: Saccharomyces cerevisiae, CECT 1324; test: agar diffusion, inhibition halo; format: cell-based
Method: as §6, §7, §8

[6] = test system: Aspergillus niger, CECT 2700; test: agar diffusion, inhibition halo; format: cell-based
Method: as §6, §7, §8

[7] = test system: Aspergillus terreus, isolated from the environment of the cheese maturation chamber; test: agar diffusion, inhibition halo; format: cell-based
Method: as §6, §7, §8

[8] = test system: Penicillium sp, isolated from cheese; test: agar diffusion, inhibition halo; format: cell-based
Method: as §6, §7, §8

[9] = test system: Escherichia coli; test: microbiological quality of treated hamburgers and fresh sausage: Escherichia coli count
Method: as §1, §2
The positive Brila Broth tubes obtained in the coliform study are used according to the following protocol:
All the tubes having gas production are subcultured again with an inoculation loop in tubes containing 10 mL of Brila Broth (with a Durham tube), being incubated at 44.5° C. for 24-48 hours.
Once the incubation has elapsed the existence of Escherichia coli is assumed in any tube with growth and with gas formation under the previously discussed conditions.
Eosine Methylene Blue (Merck EMB) was used as a selective confirmation medium, isolating on dishes containing EMB from all the positive tubes. The occurrence of colonies measuring 2-3 mm in diameter (planar or slightly concave), with dark almost black centers occupying ¾ of the colony which, with reflected light, sometimes show a greenish metallic glow, which are most likely Escherichia coli, the confirmation of which is done by means of the indole biochemistry test.
When positive growth (gas) in Brila Broth at 44.5° C., indole production and characteristic growth on EMB agar coincide, the reading is done in the MPN table and the data is extrapolated.
The result is expressed as the number of
Escherichia coli per gram of sample.
as §3, §4, §5

[10] = test system: Coliforms; test: microbiological quality of treated hamburgers and fresh sausage: coliform count (MPN)
Method: as §1, §2
The method used to detect lactose-positive enterobacteria (coliforms) is based on its capacity to ferment lactose with the production of acid and gas in the presence of bile salts.
To that end a count was performed in liquid medium to determine a MPN on Brilliant Green Bile Lactose Broth (Merck Brila Broth).
Said Brilliant Broth is prepared in a test tube rack with 3 series of three tubes for each one of the samples to be analyzed. Each tube contains 10 ml of Brila Broth and 1 Durham tube.
1 mL of the dilution of the sample at 1:10 or (−1) is poured into each one of the tubes of the first series.
1 mL of the dilution of the sample at 1:100 or (−2) is poured into each one of the tubes of the second series.
1 mL of the dilution of the sample at 1:1000 or (−3) is poured into each one of the tubes of the third series.
The three series are incubated at 31±1° C., taking a reading at 24 and 48 hours.
The reaction is positive when gas discharge occurs inside the Durham tube, at least in 1/10 of its volume.
The Most Probable Number (MPN) table is used with the number of positive tubes in each series, and the data is extrapolated.
The result is finally expressed as the coliform count per gram of sample.
as §3, §4, §5

[11] = hamburger, 25 ppm of allicin (H-1), t = 0 days
[12] = hamburger, 25 ppm of allicin (H-1), t = 4 days
[13] = hamburger, 50 ppm of allicin (H-2), t = 0 days
[14] = hamburger, 50 ppm of allicin (H-2), t = 4 days
[15] = hamburger, 100 ppm of allicin (H-3), t = 0 days
[16] = hamburger, 100 ppm of allicin (H-3), t = 4 days
[17] = sausage, 25 ppm of allicin (S-1), t = 0 days
[18] = sausage, 25 ppm of allicin (S-1), t = 4 days
[19] = sausage, 50 ppm of allicin (S-2), t = 0 days
[20] = sausage, 50 ppm of allicin (S-2), t = 4 days
[21] = sausage, 100 ppm of allicin (S-3), t = 0 days
[22] = sausage, 100 ppm of allicin (S-3), t = 4 days

C=CCS[S+]([O-])CC=C (stereo not drawn) [Allicin, allyl allylthiosulfinate]
reduction of total mesophilic aerobes with respect to untreated controls ([1]; allicin 100 ppm, all sausage samples and hamburgers, maintained from 0 to 4 days): reduction of one logarithmic unit | Total aerobes [1, 11]: 2.17 × 10^6 cfu/g | Total aerobes [1, 12]: 1.56 × 10^8 cfu/g | Total aerobes [1, 13]: 9.01 × 10^5 cfu/g | Total aerobes [1, 14]: 6.23 × 10^7 cfu/g | Total aerobes [1, 15]: 4.08 × 10^5 cfu/g | Total aerobes [1, 16]: 3.17 × 10^7 cfu/g | Total aerobes [1, 17]: 2.24 × 10^5 cfu/g | Total aerobes [1, 18]: 3.08 × 10^6 cfu/g | Total aerobes [1, 19]: 8.99 × 10^4 cfu/g | Total aerobes [1, 20]: 2.72 × 10^6 cfu/g | Total aerobes [1, 21]: 6.06 × 10^4 cfu/g | Total aerobes [1, 22]: 3.10 × 10^5 cfu/g | inhibition halo diameter ([2]; 25 ppm): 14 mm | inhibition halo diameter ([2]; 50 ppm): 18 mm | inhibition halo diameter ([2]; 100 ppm): 29 mm | inhibition halo diameter ([3]; 50 ppm): 14 mm | inhibition halo diameter ([3]; 100 ppm): 17 mm | inhibition halo diameter ([4]; 25 ppm): 22 mm | inhibition halo diameter ([4]; 50 ppm): 30 mm | inhibition halo diameter ([4]; 100 ppm): 38 mm | inhibition halo diameter ([5]; 25 ppm): 28 mm | inhibition halo diameter ([5]; 50 ppm): 32 mm | inhibition halo diameter ([5]; 100 ppm): 44 mm | inhibition halo diameter ([6]; 25 ppm): 10 mm | inhibition halo diameter ([6]; 50 ppm): 13 mm | inhibition halo diameter ([6]; 100 ppm): 19 mm | inhibition halo diameter ([7]; 25 ppm): 12 mm | inhibition halo diameter ([7]; 50 ppm): 22 mm | inhibition halo diameter ([7]; 100 ppm): 25 mm | inhibition halo diameter ([8]; 25 ppm): 22 mm | inhibition halo diameter ([8]; 50 ppm): 26 mm | inhibition halo diameter ([8]; 100 ppm): 34 mm | Escherichia coli [9, 11]: 23 cfu/g | Escherichia coli [9, 12]: 150 cfu/g | Escherichia coli [9, 13]: 23 cfu/g | Escherichia coli [9, 14]: 150 cfu/g | Escherichia coli [9, 15]: 23 cfu/g | Escherichia coli [9, 16]: 43 cfu/g | Escherichia coli [9, 17]: <3 cfu/g | Escherichia coli [9, 18]: 4 cfu/g | Escherichia coli [9, 19]: <3 cfu/g | Escherichia coli [9, 20]: 4 cfu/g | Escherichia coli [9, 21]: <3 cfu/g | Escherichia coli [9, 22]: <3 cfu/g | Coliforms [10, 11]: 150 cfu/g | Coliforms [10, 12]: >2400 cfu/g | Coliforms [10, 13]: 150 cfu/g | Coliforms [10, 14]: 1100 cfu/g | Coliforms [10, 15]: 150 cfu/g | Coliforms [10, 16]: 150 cfu/g | Coliforms [10, 17]: 3 cfu/g | Coliforms [10, 18]: 21 cfu/g | Coliforms [10, 19]: <3 cfu/g | Coliforms [10, 20]: 7 cfu/g | Coliforms [10, 21]: <3 cfu/g | Coliforms [10, 22]: <3 cfu/g
